Biological target: [35S]-TBPS binding, rat brain cortical membranes
Assay: Steroid inhibition of [35S]-TBPS binding
Details: Table 4, 3 nM [35S]-TBPS, in the presence of 5 mM GABA, read-out: TBPS IC50
Description: [35S]-t-Butylbicyclophosphorothionate (TBPS) binding assays using rat brain cortical membranes in the presence of 5 mM GABA has been described (Gee et al, J. Pharmacol. Exp. Ther. 1987, 241, 346-353; Hawkinson et al, Mol. Pharmacol. 1994, 46, 977-985; Lewin, A. H et al., Mol. Pharmacol. 1989, 35, 189-194).
Briefly, cortices are rapidly removed following decapitation of carbon dioxide-anesthetized Sprague-Dawley rats (200-250 g). The cortices are homogenized in 10 volumes of ice-cold 0.32 M sucrose using a glass/teflon homogenizer and centrifuged at 1500×g for 10 min at 4° C. The resultant supernatants are centrifuged at 10,000×g for 20 min at 4° C. to obtain the P2 pellets. The P2 pellets are resuspended in 200 mM NaCl/50 mM Na—K phosphate pH 7.4 buffer and centrifuged at 10,000×g for 10 min at 4° C. This washing procedure is repeated twice and the pellets are resuspended in 10 volumes of buffer. Aliquots ([…]) of the membrane suspensions are incubated with 3 nM [^35S]-TBPS and […] aliquots of test drug dissolved in dimethyl sulfoxide (DMSO) (final 0.5%) in the presence of 5 mM GABA. The incubation is brought to a final volume of 1.0 mL with buffer. Nonspecific binding is determined in the presence of […] and ranged from 15 to 25%. Following a 90 min incubation at room temp, the assays are terminated by filtration through glass fiber filters (Schleicher and Schuell No. 32) using a cell harvester (Brandel) and rinsed three times with ice-cold buffer. Filter bound radioactivity is measured by liquid scintillation spectrometry. Non-linear curve fitting of the overall data for each drug averaged for each concentration is done using Prism (GraphPad). […] The concentration of test compound producing 50% inhibition (IC50) of specific binding and the maximal extent of inhibition (Imax) are determined for the individual experiments with the same model used for the overall data and then the means±SEM.s of the individual experiments are calculated.
Various compounds are or can be screened to determine their potential as modulators of [^35S]-TBPS binding in vitro. These assays are or can be performed in accordance with the above

Compound | IC50 [nM]
CC[C@]12CCCC(C)(O)C[C@H]1CC[C@H]1[C@@H]3CC[C@H](C(=O)Cn4cc(C#N)cn4)[C@@]3(C)CC[C@@H]12 (stereo in doubt) [Example 20, 1-(2-((1S,3aS,3bS,5aR,7S,10aS,10bS,12aS)-10a-ethyl-7-hydroxy-7,12a-dimethyloctadecahydrocyclohepta[a]cyclopenta[f]naphthalen-1-yl)-2-oxoethyl)-1H-pyrazole-4-carbonitrile] | < 100
CC(=O)[C@H]1CCC[C@H]2[C@@H]3CC[C@@H]4CC[C@](C)(O)CC[C@@H]4[C@H]3CC[C@]12C [Example 1, 1-((1S,4aS,4bR,6aR,9S,11aS,11bR,13aS)-9-hydroxy-9,13a-dimethyloctadecahydro-1H-cyclohepta[a]phenanthren-1-yl)ethan-1-one] | > 1000
C[C@]1(O)CC[C@H]2CC[C@@H]3[C@H](CC[C@]4(C)[C@H](C(=O)Cn5cc(C#N)cn5)CCC[C@@H]34)[C@H]2CC1 [Example 3] | > 1000
C[C@]1(O)CC[C@H]2CC[C@@H]3[C@H](CC[C@]4(C)[C@@H](C(=O)Cn5cc(C#N)cn5)CCC[C@@H]34)[C@H]2CC1 [Example 4, 1-(2-((1S,4aS,4bR,6aR,9S,11aS,11bR,13aS)-9-hydroxy-9,13a-dimethyloctadecahydro-1H-cyclohepta[a]phenanthren-1-yl)-2-oxoethyl)-1H-pyrazole-4-carbonitrile] | 100 to 1000
CC(=O)[C@H]1CCC[C@H]2[C@@H]3CC[C@@H]4C[C@](C)(O)CCC[C@@H]4[C@H]3CC[C@]12C [Example 9, 1-((1S,4aS,4bR,6aR,8R,11aS,11bR,13aS)-8-hydroxy-8,13a-dimethyloctadecahydro-1H-cyclohepta[a]phenanthren-1-yl)ethan-1-one] | < 100
C[C@@]1(O)CCC[C@H]2[C@H](CC[C@@H]3[C@@H]2CC[C@]2(C)[C@@H](C(=O)Cn4cc(C#N)cn4)CCC[C@@H]32)C1 [Example 10] | < 100
Cc1nnn(CC(=O)[C@H]2CCC[C@H]3[C@@H]4CC[C@@H]5C[C@](C)(O)CCC[C@@H]5[C@H]4CC[C@]23C)n1 [Example 11, 1-((1S,4aS,4bR,6aR,8R,11aS,11bR,13aS)-8-hydroxy-8,13a-dimethyloctadecahydro-1H-cyclohepta[a]phenanthren-1-yl)-2-(5-methyl-2H-tetrazol-2-yl)ethan-1-one] | < 100
Cc1nnnn1CC(=O)[C@H]1CCC[C@H]2[C@@H]3CC[C@@H]4C[C@](C)(O)CCC[C@@H]4[C@H]3CC[C@]12C [Example 12, 1-((1S,4aS,4bR,6aR,8R,11aS,11bR,13aS)-8-hydroxy-8,13a-dimethyloctadecahydro-1H-cyclohepta[a]phenanthren-1-yl)-2-(5-methyl-1H-tetrazol-1-yl)ethan-1-one] | < 100
CC[C@@]1(O)CCC[C@H]2[C@H](CC[C@@H]3[C@@H]2CC[C@]2(C)[C@@H](C(C)=O)CCC[C@@H]32)C1 [Example 13, 1-((1S,4aS,4bR,6aR,8R,11aS,11bR,13aS)-8-ethyl-8-hydroxy-13a-methyloctadecahydro-1H-cyclohepta[a]phenanthren-1-yl)ethan-1-one] | 100 to 1000
CC[C@@]1(O)CCC[C@H]2[C@H](CC[C@@H]3[C@@H]2CC[C@]2(C)[C@@H](C(=O)Cn4cc(C#N)cn4)CCC[C@@H]32)C1 [Example 14, 1-(2-((1S,4aS,4bR,6aR,8R,11aS,11bR,13aS)-8-ethyl-8-hydroxy-13a-methyloctadecahydro-1H-cyclohepta[a]phenanthren-1-yl)-2-oxoethyl)-1H-pyrazole-4-carbonitrile] | 100 to 1000
CC(=O)[C@H]1CCC[C@H]2[C@@H]3CC[C@@H]4C[C@](C)(O)CCC[C@]4(C)[C@H]3CC[C@]12C [Example 15, 1-((1S,4aS,4bR,6aR,8R,11aS,11bS,13aS)-8-hydroxy-8,11a,13a-trimethyloctadecahydro-1H-cyclohepta[a]phenanthren-1-yl)ethan-1-one] | < 100
C[C@@]1(O)CCC[C@@]2(C)[C@H](CC[C@@H]3[C@@H]2CC[C@]2(C)[C@H](C(=O)Cn4cc(C#N)cn4)CCC[C@@H]32)C1 [Example 17, 1-(2-((1R,4aS,4bR,6aR,8R,11aS,11bS,13aS)-8-hydroxy-8,11a,13a-trimethyloctadecahydro-1H-cyclohepta[a]phenanthren-1-yl)-2-oxoethyl)-1H-pyrazole-4-carbonitrile] | > 1000
C[C@@]1(O)CCC[C@@]2(C)[C@H](CC[C@@H]3[C@@H]2CC[C@]2(C)[C@@H](C(=O)CCn4cc(C#N)cn4)CCC[C@@H]32)C1 [Example 18, 1-(3-((1S,4aS,4bR,6aR,8R,11aS,11bS,13aS)-8-hydroxy-8,11a,13a-trimethyloctadecahydro-1H-cyclohepta[a]phenanthren-1-yl)-3-oxopropyl)-1H-pyrazole-4-carbonitrile] | < 100
CC[C@]12CC[C@@](C)(O)C[C@H]1CC[C@H]1[C@@H]3CCC[C@H](C(=O)Cn4cc(C#N)cn4)[C@@]3(C)CC[C@@H]12 [Example 19, 1-(2-((1S,4aS,4bS,6aR,8R,10aS,10bS,12aS)-10a-ethyl-8-hydroxy-8,12a-dimethyloctadecahydrochrysen-1-yl)-2-oxoethyl)-1H-pyrazole-4-carbonitrile] | < 100
CC[C@]12CC[C@@](C)(O)C[C@H]1CC[C@H]1[C@@H]3CCCC[C@@H](C(=O)Cn4cc(C#N)cn4)[C@@]3(C)CC[C@@H]12 [Example 21] | 100 to 1000
CC[C@]12CC[C@@](C)(O)C[C@H]1CC[C@H]1[C@@H]3CCCC[C@H](C(C)=O)[C@@]3(C)CC[C@@H]12 [Example 22] | < 100
CC[C@]12CC[C@@](C)(O)C[C@H]1CC[C@H]1[C@@H]3CCCC[C@@H](C(C)=O)[C@@]3(C)CC[C@@H]12 [Example 23, 1-((2R,4aS,4bS,6aS,7R,11aS,11bS,13aR)-4a-ethyl-2-hydroxy-2,6a-dimethyloctadecahydro-1H-cyclohepta[a]phenanthren-7-yl)ethanone] | 100 to 1000
CC[C@]12CC[C@@](C)(O)C[C@H]1CC[C@H]1[C@@H]3CCCC[C@H](C(=O)Cn4cc(C#N)cn4)[C@@]3(C)CC[C@@H]12 [Example 24] | < 100
CC[C@]12CC[C@@](C)(O)CC[C@H]1CC[C@H]1[C@@H]3CC[C@H](C(C)=O)[C@@]3(C)CC[C@@H]12 [Example 25, 1-((1S,3aS,3bS,5aR,8S,10aS,10bS,12aS)-10a-ethyl-8-hydroxy-8,12a-dimethyloctadecahydrocyclohepta[a]cyclopenta[f]naphthalen-1-yl)ethanone] | 100 to 1000
CC[C@]12CC[C@@](C)(O)CC[C@H]1CC[C@H]1[C@@H]3CC[C@H](C(=O)Cn4cc(C#N)cn4)[C@@]3(C)CC[C@@H]12 [Example 26] | 100 to 1000
CC[C@]12CC[C@H]3[C@@H](CC[C@@H]4C[C@](C)(O)CC[C@@H]43)[C@@H]1CCC[C@@H]2C(C)=O [Example 27, 1-((1S,4aS,4bR,6aR,8R,10aS,10bR,12aS)-12a-ethyl-8-hydroxy-8-methyloctadecahydrochrysen-1-yl)ethanone] | < 100
CC[C@]12CC[C@H]3[C@@H](CC[C@@H]4C[C@](C)(O)CC[C@@H]43)[C@@H]1CCC[C@@H]2C(=O)Cn1cc(C#N)cn1 [Example 28, 1-(2-((1S,4aS,4bR,6aR,8R,10aS,10bR,12aS)-12a-ethyl-8-hydroxy-8-methyloctadecahydrochrysen-1-yl)-2-oxoethyl)-1H-pyrazole-4-carbonitrile] | < 100
CC[C@]12CC[C@H]3[C@@H](CC[C@@H]4C[C@](C)(O)CCC[C@@]43C)[C@@H]1CC[C@@H]2C(C)=O [Example 29, 1-((1S,3aS,3bR,5aR,7R,10aS,10bS,12aS)-12a-ethyl-7-hydroxy-7,10a-dimethyloctadecahydrocyclohepta[a]cyclopenta[f]naphthalen-1-yl)ethanone] | < 100

Same assay, conditions: Table 5, 3 nM [35S]-TBPS, in the presence of 5 mM GABA, read-out: TBPS IC50

Compound | IC50 [nM]
C[C@@]1(O)CC[C@H]2[C@H](CC[C@@H]3[C@@H]2CC[C@H]2[C@H]3CC[C@H]2C(=O)Cn2cc(C#N)cn2)C1 (stereo in doubt) [Example 71] | > 1000
